The values that follow come from patent US6352966B1, “Cleansing bars” (Albemarle Corporation, priority 2000, dated 2002).

What all share (assay type): physicochemical
The nature of series [1]: Surface tension in ionic buffer solution. The conditions noted are these: 0.02 normal aqueous potassium nitrate solution at 25° C. The text has this: Also shown in Table 1 are the corresponding values for the partially neutralized monosodium salts of the corresponding alk(en)yl succinic acids.
Series [2] can be described thus: Reflectance of cleansing bars. The note with it: bar; the higher the reflectance the whiter the bar. Here is the method:
(§1) The desirable properties of cleansing bars formed from fully neutralized sodium salts of various alkenyl succinic acids of this invention were determined in a further series of comparative tests. In these tests both the reflectance and the bar hardness were determined. In addition to testing bars of five different fully neutralized succinate salts of this invention, the same properties were measured on four fully compounded commercial soap bars from different well-known soap manufacturers. As can be appreciated, the higher the reflectance the whiter the bar, and the higher the hardness, the more desirable is the bar. In Table 2, the five fully neutralized alkenyl succinic acids are identified in terms of the number of carbon atoms in the alkenyl group. Thus, for example, C6 SAS represents the fully neutralized disodium salt of n-hexenyl succinic acid. As regards reflectance, Commercial Bar B is pink in color, and Commercial Bar C is a coral-orange in color. The other two commercial bars are white.

Series [3] can be described thus: Bar hardness of cleansing bars. The conditions noted are these: the higher the hardness, the more desirable. Here is the method: as §1

In series [1], `CCCCCCCCCCC(CC(=O)[O-])C(=O)[O-].[Na+].[Na+]` (stereo not drawn) [Disodium n-decylsuccinate] showed a surface tension of 26 millinewtons per meter.
Molecule `CCCCCCCCC(CC(=O)[O-])C(=O)[O-].[Na+].[Na+]` (stereo not drawn) [Disodium n-octylsuccinate] had a surface tension in series [1] of 26 millinewtons per meter.
On to `CCCCCCCCCCC(CC(=O)O)C(=O)[O-].[Na+]` (stereo not drawn) [Monosodium n-decylsuccinate, reference compound], for which the surface tension in series [1] came out at 26.32 millinewtons per meter.
Consider `CCCCCCCCC(CC(=O)O)C(=O)[O-].[Na+]` (stereo not drawn) [Monosodium n-octylsuccinate, reference compound], for which the surface tension in series [1] turned out to be 26.64 millinewtons per meter.
Molecule Disodium n-dodecenylsuccinate yielded a surface tension in series [1] of 25.8 millinewtons per meter. The molecule further showed a Reflectance in series [2] of 87. The “Bar Hardness” value in series [3] is on record as 132.
On to Disodium n-tetradecenylsuccinate, for which, in series [1], the surface tension was 26 millinewtons per meter. The Reflectance in series [2] stood at 74. Besides, the “Bar Hardness” value in series [3] stood at 144.
In series [1], “Monosodium n-dodecenylsuccinate [reference compound]” gave a surface tension of 26.32 millinewtons per meter.
“Monosodium n-tetradecenylsuccinate [reference compound]” yielded a surface tension in series [1] of 26 millinewtons per meter.
